From patent publication US9475816B2, “Substituted-1,4-dihydropyrazolo[4,3-b]indoles” (TAKEDA PHARMACEUTICAL COMPANY LIMITED, priority 2012, dated 2016)

What was measured:
human MetAP2 enzyme [1] = biological target: T1, human MetAP2 enzyme (Homo sapiens, UniProt P50579); assay: MetAP2 enzyme assay, MetAP2 enzyme complexed with cobalt ions; conditions: MetAP2 Co pIC50, 10 μM CoCl2; -log(IC50), IC50 molar
human MetAP2 enzyme [2] = biological target: T1, human MetAP2 enzyme; assay: MetAP2 enzyme assay, MetAP2 enzyme complexed with manganese ions; conditions: MetAP2 Mn pIC50, 10 μM MnCl2; -log(IC50), IC50 molar

T1 sequence (P50579 whole entry): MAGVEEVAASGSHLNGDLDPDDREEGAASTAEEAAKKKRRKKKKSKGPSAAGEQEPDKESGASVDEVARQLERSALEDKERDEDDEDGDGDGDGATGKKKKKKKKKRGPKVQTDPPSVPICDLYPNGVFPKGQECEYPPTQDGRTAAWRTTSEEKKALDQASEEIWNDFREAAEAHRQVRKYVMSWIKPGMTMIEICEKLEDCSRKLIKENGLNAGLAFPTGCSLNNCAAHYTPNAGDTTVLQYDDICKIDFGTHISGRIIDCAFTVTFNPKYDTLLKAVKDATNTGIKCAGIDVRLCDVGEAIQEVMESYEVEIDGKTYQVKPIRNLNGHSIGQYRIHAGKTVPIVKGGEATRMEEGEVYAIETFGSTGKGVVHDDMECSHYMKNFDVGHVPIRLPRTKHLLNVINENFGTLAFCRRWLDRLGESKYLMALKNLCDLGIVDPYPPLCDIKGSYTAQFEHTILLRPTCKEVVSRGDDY

Row | Compound | IC50 (human MetAP2 enzyme [1]) | IC50 (human MetAP2 enzyme [2])
1 | Cc1nc(N2CCC[C@@H]2C(N)=O)ncc1-n1c2ccc(F)cc2c2[nH]ncc21 [Example 73, (2R)-1-(5-(7-Fluoropyrazolo[4,3-b]indol-4(1H)-yl)-4-methylpyrimidin-2-yl)pyrrolidine-2-carboxamide] | 6.31 nM | 3.16 nM
2 | CCn1nc(C)c(-n2c3ccc(F)cc3c3[nH]ncc32)c1C [Example 23, 4-(1-Ethyl-3,5-dimethyl-1H-pyrazol-4-yl)-7-fluoro-1,4-dihydropyrazolo[4,3-b]indole] | 10 nM | 15.8 nM
3 | Cc1nc(N2CCN(C)CC2)ncc1-n1c2ccc(F)cc2c2[nH]ncc21 [Example 60, 7-Fluoro-4-(4-methyl-2-(4-methylpiperazin-1-yl)pyrimidin-5-yl)-1,4-dihydropyrazolo[4,3-b]indole] | 3.16 nM | 10 nM
4 | Cc1nc(N2CCC[C@H](O)C2)ncc1-n1c2ccc(F)cc2c2[nH]ncc21 [Example 37, (3S)-1-(5-(7-Fluoropyrazolo[4,3-b]indol-4(1H)-yl)-4-methylpyrimidin-2-yl)piperidin-3-ol] | 6.31 nM | 6.31 nM
5 | Cc1cc(C(=O)N2CC[C@@H](O)C2)ncc1-n1c2ccc(F)cc2c2[nH]ncc21 [Example 109, (5-(7-Fluoropyrazolo[4,3-b]indol-4(1H)-yl)-4-methylpyridin-2-yl)((R)-3-hydroxypyrrolidin-1-yl)methanone] | 25.1 nM | 25.1 nM
6 | O=C(NCCO)c1ccc(Cn2c3ccc(F)cc3c3[nH]ncc32)cc1 [Example 54, 4-((7-Fluoropyrazolo[4,3-b]indol-4(1H)-yl)methyl)-N-(2-hydroxyethyl)benzamide] | 31.6 nM | 39.8 nM
7 | Cn1cc(-n2c3ccc(F)cc3c3[nH]ncc32)c(CO)n1 [Example 138, (4-(7-Fluoropyrazolo[4,3-b]indol-4(1H)-yl)-1-methyl-1H-pyrazol-3-yl)methanol] | 10 nM | 5.01 nM
8 | COCc1[nH]ncc1-n1c2ccc(F)cc2c2[nH]ncc21 [Example 65, 7-Fluoro-4-(5-(methoxymethyl)-1H-pyrazol-4-yl)-1,4-dihydropyrazolo[4,3-b]indole] | 12.6 nM | 10 nM
9 | Cc1nc(N2CC[C@@H](O)C2)ncc1-n1c2ccc(F)cc2c2[nH]ncc21 [Example 58, (3R)-1-(5-(7-Fluoropyrazolo[4,3-b]indol-4(1H)-yl)-4-methylpyrimidin-2-yl)pyrrolidin-3-ol] | 15.8 nM | 12.6 nM
10 | O=c1[nH]c(N2CC[C@@H](O)C2)ncc1-n1c2ccc(F)cc2c2[nH]ncc21 [Example 84, (R)-5-(7-Fluoropyrazolo[4,3-b]indol-4(1H)-yl)-2-(3-hydroxypyrrolidin-1-yl)pyrimidin-4(3H)-one] | 20 nM | 10 nM
11 | OCc1nn(C(F)F)cc1-n1c2ccc(F)cc2c2[nH]ncc21 [Example 134, (1-(Difluoromethyl)-4-(7-fluoropyrazolo[4,3-b]indol-4(1H)-yl)-1H-pyrazol-3-yl)methanol] | 15.8 nM | 6.31 nM
12 | Cn1nc(C(=O)NCCO)cc1-n1c2ccc(F)cc2c2[nH]ncc21 [Example 88, 5-(7-Fluoropyrazolo[4,3-b]indol-4(1H)-yl)-N-(2-hydroxyethyl)-1-methyl-1H-pyrazole-3-carboxamide] | 25.1 nM | 10 nM
13 | Cc1nc2[nH]c(=O)n(CCO)c2cc1-n1c2ccc(F)cc2c2[nH]ncc21 [Example 32, 6-(7-Fluoropyrazolo[4,3-b]indol-4(1H)-yl)-1-(2-hydroxyethyl)-5-methyl-1H-imidazo[4,5-b]pyridin-2(3H)-one] | 7.94 nM | 10 nM
14 | Cc1nc(N2CC[C@H](C(=O)N3CC(O)C3)C2)ncc1-n1c2ccc(F)cc2c2[nH]ncc21 [Example 111, ((3S)-1-(5-(7-Fluoropyrazolo[4,3-b]indol-4(1H)-yl)-4-methylpyrimidin-2-yl)pyrrolidin-3-yl)(3-hydroxyazetidin-1-yl)methanone] | 7.94 nM | 12.6 nM
15 | Cc1nc2[nH]cnc2cc1-n1c2cc(Cl)c(F)cc2c2[nH]ncc21 [Example 129, 6-Chloro-7-fluoro-4-(5-methyl-3H-imidazo[4,5-b]pyridin-6-yl)-1,4-dihydropyrazolo[4,3-b]indole] | 25.1 nM | 50.1 nM
16 | Cc1nc(N2CCC(C#N)CC2)ncc1-n1c2ccc(F)cc2c2[nH]ncc21 [Example 56, 1-(5-(7-Fluoropyrazolo[4,3-b]indol-4(1H)-yl)-4-methylpyrimidin-2-yl)piperidine-4-carbonitrile] | 12.6 nM | 7.94 nM
17 | Cc1nc2c(cc1-n1c3ccc(F)cc3c3[nH]ncc31)[nH]c(=O)n2CCCO [Example 81, 6-(7-Fluoropyrazolo[4,3-b]indol-4(1H)-yl)-3-(3-hydroxypropyl)-5-methyl-1H-imidazo[4,5-b]pyridin-2(3H)-one] | 5.01 nM | 6.31 nM
18 | Cc1nc(NCCO)ncc1-n1c2ccc(F)cc2c2[nH]ncc21 [Example 74, 2-((5-(7-Fluoropyrazolo[4,3-b]indol-4(1H)-yl)-4-methylpyrimidin-2-yl)amino)ethanol] | 10 nM | 7.94 nM
19 | Fc1ccc2c(c1)c1[nH]ncc1n2Cc1ccccc1 [Example 1, 4-Benzyl-7-fluoro-1,4-dihydropyrazolo[4,3-b]indole] | 39.8 nM | 31.6 nM
20 | Cc1nc(N2C[C@@H](O)[C@H](O)C2)ncc1-n1c2ccc(F)cc2c2[nH]ncc21 [Example 76, (3R,4R)-1-(5-(7-Fluoropyrazolo[4,3-b]indol-4(1H)-yl)-4-methylpyrimidin-2-yl)pyrrolidine-3,4-diol] | 10 nM | 6.31 nM

Further lines, results first:

Row | IC50 (human MetAP2 enzyme [1]) | IC50 (human MetAP2 enzyme [2]) | Compound
21 | 31.6 nM | 39.8 nM | COCCNC(=O)c1ccc(-n2c3ccc(F)cc3c3[nH]ncc32)c(C)n1 [Example 102, 5-(7-Fluoropyrazolo[4,3-b]indol-4(1H)-yl)-N-(2-methoxyethyl)-6-methylpicolinamide]
22 | 10 nM | 15.8 nM | Cc1nc(N)ccc1-n1c2ccc(F)cc2c2[nH]ncc21 [Example 42, 5-(7-Fluoropyrazolo[4,3-b]indol-4(1H)-yl)-6-methylpyridin-2-amine]
23 | 20 nM | 10 nM | Cc1c(-n2c3ccc(F)cc3c3[nH]ncc32)ccc2ncnn12 [Example 70, 7-Fluoro-4-(5-methyl-[1,2,4]triazolo[1,5-a]pyridin-6-yl)-1,4-dihydropyrazolo[4,3-b]indole]
24 | 6.31 nM | 6.31 nM | Cc1nc(N2CC[C@@H](O)C2)ccc1-n1c2ccc(F)cc2c2[nH]ncc21 [Example 6, (3R)-1-(5-(7-Fluoropyrazolo[4,3-b]indol-4(1H)-yl)-6-methylpyridin-2-yl)pyrrolidin-3-ol]
25 | 7.94 nM | 6.31 nM | Cc1nc(NC[C@@H](C)O)ncc1-n1c2ccc(F)cc2c2[nH]ncc21 [Example 93, (2R)-1-((5-(7-Fluoropyrazolo[4,3-b]indol-4(1H)-yl)-4-methylpyrimidin-2-yl)amino)propan-2-ol]
26 | 6.31 nM | 12.6 nM | CNc1cc(C)c(-n2c3ccc(F)cc3c3[nH]ncc32)cn1 [Example 45, 5-(7-Fluoropyrazolo[4,3-b]indol-4(1H)-yl)-N,4-dimethylpyridin-2-amine]
27 | 10 nM | 6.31 nM | Cc1nc(CCS(C)(=O)=O)ccc1-n1c2ccc(F)cc2c2[nH]ncc21 [Example 133, 7-Fluoro-4-(2-methyl-6-(2-(methylsulfonyl)ethyl)pyridin-3-yl)-1,4-dihydropyrazolo[4,3-b]indole]
28 | 12.6 nM | 12.6 nM | Cc1cc(N)ncc1-n1c2ccc(F)cc2c2[nH]ncc21 [Example 41, 5-(7-Fluoropyrazolo[4,3-b]indol-4(1H)-yl)-4-methylpyridin-2-amine]
29 | 10 nM | 3.16 nM | Cc1nc(N2CCOCC2)ccc1-n1c2ccc(F)cc2c2[nH]ncc21 [Example 66, 4-(5-(7-Fluoropyrazolo[4,3-b]indol-4(1H)-yl)-6-methylpyridin-2-yl)morpholine]
30 | 10 nM | 7.94 nM | Cc1nc(NC[C@H](C)O)ncc1-n1c2ccc(F)cc2c2[nH]ncc21 [Example 92, (2S)-1-((5-(7-Fluoropyrazolo[4,3-b]indol-4(1H)-yl)-4-methylpyrimidin-2-yl)amino)propan-2-ol]
31 | 20 nM | 5.01 nM | COc1ccc(-n2c3ccc(F)cc3c3[nH]ncc32)c(C)n1 [Example 69, 7-Fluoro-4-(6-methoxy-2-methylpyridin-3-yl)-1,4-dihydropyrazolo[4,3-b]indole]
32 | 7.94 nM | 6.31 nM | Cc1nc(C(=O)NC[C@@H](C)O)ccc1-n1c2ccc(F)cc2c2[nH]ncc21 [Example 123, 5-(7-Fluoropyrazolo[4,3-b]indol-4(1H)-yl)-N—((R)-2-hydroxypropyl)-6-methylpicolinamide]
33 | 10 nM | 6.31 nM | Cc1c(-n2c3ccc(F)cc3c3[nH]ncc32)ccc2nn(C)cc12 [Example 9, 4-(2,4-Dimethyl-2H-indazol-5-yl)-7-fluoro-1,4-dihydropyrazolo[4,3-b]indole]
34 | 12.6 nM | 12.6 nM | Cc1nc(C(=O)NC2(CO)CC2)ccc1-n1c2ccc(F)cc2c2[nH]ncc21 [Example 100, 5-(7-Fluoropyrazolo[4,3-b]indol-4(1H)-yl)-N-(1-(hydroxymethyl)cyclopropyl)-6-methylpicolinamide]
35 | 63.1 nM | 31.6 nM | Cc1ncncc1-n1c2ccc(F)cc2c2[nH]ncc21 [Example 49, 7-Fluoro-4-(4-methylpyrimidin-5-yl)-1,4-dihydropyrazolo[4,3-b]indole]
36 | 6.31 nM | 12.6 nM | Cc1nc(N[C@@H](C)CO)ncc1-n1c2ccc(F)cc2c2[nH]ncc21 [Example 91, (2S)-2-((5-(7-Fluoropyrazolo[4,3-b]indol-4(1H)-yl)-4-methylpyrimidin-2-yl)amino)propan-1-ol]
